Reference: ChEMBL document CHEMBL4311981, “Synthesis, anticancer activity, and molecular modeling of 1,4-naphthoquinones that inhibit MKK7 and Cdc25” (Eur J Med Chem, 2019)
Active and inactive are the calls of the source. The calls are words filed in the database; no cut-off is given here.

Experiments:
[1] = tested on: A549; assay: Cytotoxicity against human A549 cells assessed as reduction in cell viability incubated for 24 hrs by CellTiter-Glo luminescent cell viability assay; format: functional, cell-based; conditions: A549, 24 h
[2] = tested on: MCF7; assay: Cytotoxicity against human MCF7 cells assessed as reduction in cell viability incubated for 24 hrs by CellTiter-Glo luminescent cell viability assay; format: functional, cell-based; conditions: MCF7, 24 h
[3] = target: T1, Neutrophil elastase (Homo sapiens) (UniProt P08246); assay: Inhibition of recombinant HNE (unknown origin) at <50 uM using N-methylsuccinyl-Ala-Ala-Pro-Val-7-amino-4-methylcoumarin, as a substrate measured every 30 sec for 10 mins by fluorometric assay
T1 sequence (whole entry): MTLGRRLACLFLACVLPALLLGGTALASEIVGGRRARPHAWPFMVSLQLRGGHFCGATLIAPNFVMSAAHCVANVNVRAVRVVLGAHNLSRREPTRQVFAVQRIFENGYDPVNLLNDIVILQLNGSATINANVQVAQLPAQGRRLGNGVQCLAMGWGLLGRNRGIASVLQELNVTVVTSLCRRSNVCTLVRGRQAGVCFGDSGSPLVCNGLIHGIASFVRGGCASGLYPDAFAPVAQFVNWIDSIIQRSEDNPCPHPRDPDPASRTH

[4] = tested on: HL-60; assay: Cytotoxicity against human HL60 cells assessed as reduction in cell viability incubated for 24 hrs by CellTiter-Glo luminescent cell viability assay; format: functional, cell-based; conditions: for IC50: HL-60, 24 h
[5] = tested on: THP-1; assay: Cytotoxicity against human THP1 cells assessed as reduction in cell viability incubated for 24 hrs by CellTiter-Glo luminescent cell viability assay; format: functional, cell-based; conditions: THP-1, 24 h
[6] = tested on: SW982; assay: Cytotoxicity against human SW982 cells assessed as reduction in cell viability incubated for 24 hrs by CellTiter-Glo luminescent cell viability assay; format: functional, cell-based; conditions: SW982, 24 h
[7] = tested on: LS174T; assay: Cytotoxicity against human LS174T cells assessed as reduction in cell viability incubated for 24 hrs by CellTiter-Glo luminescent cell viability assay; format: functional, cell-based
[8] = tested on: Jurkat; assay: cells; conditions: Homo sapiens, 24 h
Description: Cytotoxicity against human Jurkat cells assessed as reduction in cell viability incubated for 24 hrs by CellTiter-Glo luminescent cell viability assay

[9] = target: T2, Dual specificity mitogen-activated protein kinase kinase 7 (Homo sapiens, UniProt O14733); assay: biochemical
T2 sequence (O14733 whole entry): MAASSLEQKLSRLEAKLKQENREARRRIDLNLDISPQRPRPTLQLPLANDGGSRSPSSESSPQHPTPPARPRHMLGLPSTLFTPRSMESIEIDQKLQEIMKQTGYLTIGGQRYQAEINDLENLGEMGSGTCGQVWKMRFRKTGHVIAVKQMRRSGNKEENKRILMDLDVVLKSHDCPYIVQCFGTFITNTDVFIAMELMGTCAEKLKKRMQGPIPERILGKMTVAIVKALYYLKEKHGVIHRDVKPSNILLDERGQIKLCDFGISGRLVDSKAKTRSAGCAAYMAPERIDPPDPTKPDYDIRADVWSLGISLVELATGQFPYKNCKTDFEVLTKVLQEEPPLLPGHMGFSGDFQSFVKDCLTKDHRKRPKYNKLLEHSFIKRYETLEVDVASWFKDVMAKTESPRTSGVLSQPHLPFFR
Description: Binding affinity to MKK7 (unknown origin) expressed in HEK293 cells assessed as dissociation constant by kinomescan method

[10] = target: T3, M-phase inducer phosphatase 1 (Homo sapiens, UniProt P30304)
T3 sequence (P30304 whole entry): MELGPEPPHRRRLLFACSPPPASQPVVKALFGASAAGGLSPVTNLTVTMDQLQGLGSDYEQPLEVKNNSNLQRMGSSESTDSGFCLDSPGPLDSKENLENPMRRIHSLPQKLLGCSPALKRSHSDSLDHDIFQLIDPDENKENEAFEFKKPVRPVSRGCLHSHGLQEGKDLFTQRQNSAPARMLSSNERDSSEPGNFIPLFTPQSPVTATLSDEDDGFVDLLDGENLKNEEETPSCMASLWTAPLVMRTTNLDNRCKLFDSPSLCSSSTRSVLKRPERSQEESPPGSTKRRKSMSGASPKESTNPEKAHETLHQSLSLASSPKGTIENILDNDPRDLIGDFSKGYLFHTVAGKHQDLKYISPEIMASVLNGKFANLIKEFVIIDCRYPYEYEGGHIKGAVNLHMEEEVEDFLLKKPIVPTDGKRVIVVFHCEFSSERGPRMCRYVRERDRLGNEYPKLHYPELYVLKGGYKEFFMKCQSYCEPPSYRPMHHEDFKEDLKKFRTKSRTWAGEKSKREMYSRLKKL
Description: Inhibition of recombinant Cdc25A (unknown origin) using OMFP as substrate measured every 30 sec for 10 mins by fluorometric assay

[11] = target: T4, M-phase inducer phosphatase 2 (Homo sapiens, UniProt P30305)
T4 sequence (P30305 whole entry): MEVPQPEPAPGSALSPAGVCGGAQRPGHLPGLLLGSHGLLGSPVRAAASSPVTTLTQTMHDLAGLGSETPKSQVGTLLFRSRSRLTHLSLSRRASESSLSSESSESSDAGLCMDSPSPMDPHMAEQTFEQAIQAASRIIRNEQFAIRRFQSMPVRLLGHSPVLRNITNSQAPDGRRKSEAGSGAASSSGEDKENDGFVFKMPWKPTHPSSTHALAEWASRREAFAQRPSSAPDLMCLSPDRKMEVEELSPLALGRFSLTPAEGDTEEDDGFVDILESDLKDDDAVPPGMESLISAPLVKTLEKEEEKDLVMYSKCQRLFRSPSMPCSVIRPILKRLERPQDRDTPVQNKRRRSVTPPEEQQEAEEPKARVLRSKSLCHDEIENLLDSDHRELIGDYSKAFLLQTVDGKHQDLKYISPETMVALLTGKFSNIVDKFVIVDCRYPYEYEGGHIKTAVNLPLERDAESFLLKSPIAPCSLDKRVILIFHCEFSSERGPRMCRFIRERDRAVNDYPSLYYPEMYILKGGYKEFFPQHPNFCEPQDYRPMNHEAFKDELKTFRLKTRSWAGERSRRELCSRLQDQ
Description: Inhibition of recombinant Cdc25B (unknown origin) using OMFP as substrate measured every 30 sec for 10 mins by fluorometric assay

[12] = target: T5, Dual specificity mitogen-activated protein kinase kinase 7 (Homo sapiens) (UniProt O14733); assay: Binding affinity to MKK7 (unknown origin) expressed in HEK293 cells assessed as dissociation constant at <30 uM by kinomescan method; format: cell-based
T5 sequence (whole entry): T2 sequence (O14733 whole entry)

[13] = tested on: U-937; assay: Cytotoxicity against human U937 cells assessed as reduction in cell viability incubated for 24 hrs by CellTiter-Glo luminescent cell viability assay; format: functional, cell-based; conditions: U-937, 24 h
[14] = tested on: PBMC; assay: Cytotoxicity against human PBMC cells assessed as reduction in cell viability incubated for 24 hrs by CellTiter-Glo luminescent cell viability assay; format: cell-based; conditions: read-out: IC50
[15] = tested on: MONO-MAC-6; assay: Cytotoxicity against human MONO-MAC-6 cells assessed as reduction in cell viability incubated for 24 hrs by CellTiter-Glo luminescent cell viability assay; format: functional, cell-based; conditions: MONO-MAC-6, 24 h

| Structure (SMILES) | IC50 [1] | IC50 [2] | inhibition [3] | IC50 [4] | IC50 [5] | IC50 [6] | IC50 [7] | IC50 [8] | Kd [9] | IC50 [10] | IC50 [11] | inhibition [12] | IC50 [13] | Activity [12] | IC50 [14] | IC50 [15] | Activity [4] |
| --- | --- | --- | --- | --- | --- | --- | --- | --- | --- | --- | --- | --- | --- | --- | --- | --- | --- |
| CSC1=C(SC)C(=O)c2ccccc2C1=O | 12.4 µM | 7.4 µM | inactive | 0.7 µM | 1.7 µM | 7.6 µM | 15.1 µM | 1.4 µM |  |  |  |  |  |  |  |  |  |
| CC1=C(SCCC(=O)O)C(=O)c2ccccc2C1=O |  |  | inactive |  |  |  |  |  | 15 µM | 5.1 µM |  |  |  |  |  |  |  |
| O=C(O)CCCCCNC1=C(Cl)C(=O)c2ccccc2C1=O |  |  | inactive |  |  |  |  |  |  | 36.4 µM | 23.7 µM | inactive |  |  |  |  |  |
| O=C(O)CCNC1=C(Cl)C(=O)c2ccccc2C1=O |  |  | inactive |  |  |  |  |  |  | 26.1 µM | 28.8 µM | inactive |  |  |  |  |  |
| CC1=CC(=O)c2ccccc2C1=O [MENADIONE] | 25.1 µM | 9 µM | inactive | 5.6 µM |  | 9.3 µM | 26.6 µM | 5 µM |  | 6.9 µM | 3.9 µM |  | 6.3 µM | inactive | 14.5 µM |  |  |
| CCSC1=C(C)C(=O)c2ccccc2C1=O | 21.5 µM | 12.2 µM | inactive | 3.1 µM | 2.9 µM | 7.8 µM | 17.3 µM | 3.9 µM | 13 µM | 5.5 µM | 4.7 µM |  | 6.7 µM |  |  | 3.3 µM |  |
| COC(=O)c1ccc(NC2=C(Cl)C(=O)c3ccccc3C2=O)cc1 |  |  | inactive |  |  |  |  |  |  | 20.3 µM | 10.9 µM | inactive |  |  |  |  |  |
| Nn1c(CCC(=O)O)nc2ccccc2c1=O |  |  |  |  |  |  |  |  |  |  |  |  |  | inactive |  |  |  |
| CC1=C(SCCO)C(=O)c2ccccc2C1=O | 41.3 µM | 30.9 µM | inactive | 9.3 µM | 3.9 µM | 19.3 µM | 39.4 µM | 6.8 µM |  | 4.5 µM | 10.9 µM |  | 12.1 µM | inactive | 13.3 µM | 6.3 µM |  |
| O=C1C(O)=C(CN(CCCl)CCCl)C(=O)c2ccccc21 |  |  |  |  |  |  |  |  |  | 15.4 µM |  |  |  |  |  |  |  |
| O=C(O)CCNC(=O)Cn1cnc2ccccc2c1=O |  |  |  |  |  |  |  |  |  |  |  |  |  | inactive |  |  |  |
| CC1=C(SC(C)C)C(=O)c2ccccc2C1=O | 24 µM | 16.8 µM | inactive | 4.3 µM | 3.6 µM | 12.8 µM | 20.8 µM | 4.7 µM | 13 µM | 6.3 µM | 9.1 µM |  | 8.9 µM |  |  | 2 µM |  |
| CC(C)=CC[C@@H](O)C1=CC(=O)c2c(O)ccc(O)c2C1=O [SHIKONIN] | 7.3 µM | 2.7 µM | inactive |  | 0.82 µM | 2.8 µM | 8.9 µM | 0.97 µM |  | 0.22 µM |  |  | 1.2 µM | inactive | 5 µM | 2.6 µM | Dose-dependent effect |
